# Test results from patent US12371662B2, “Cell-based treatment and drug discovery in Hirschsprung's disease enabled by pluripotent stem cell-derived human enteric neural crest lineages” (MEMORIAL SLOAN-KETTERING CANCER CENTER, priority 2015, dated 2025).
# Where a SMILES comes first, the peptide text is derived from it. [ ]: non-standard residue; d: D form. The star is where a group is joined. Sta = CC(C)C[C@H](N)[C@@H](O)CC(=O)O; Isovaleryl = CC(C)CC(=O)*
# Legend:
# rodent GSK3β homologs = details: cited from earlier work
# [1] = test system: CD49D purified EDNRB−/− hESC-derived ENC; assay: Scratch (migration) assay on EDNRB−/− ENC precursors; type: cell-based, human
# Method: The ENC cells were plated on PO/LM/FN coated (prepared as described previously^38) 96 well or 48 well culture plates (30,000/cm^2). 24 hours later the culture lawn was scratched manually using a pipette tip. The cells were given an additional 24-48 hours to migrate into the scratch area and fixed for imaging and quantification. The quantification was based on the percentage of the nuclei that are located in the scratch area after the migration period. The scratch area was defined using a reference well that was fixed immediately after scratching. Migration of cells were quantified using the open source data analysis software KNIME^41 (http://knime.org) with the “Quantification in ROI” plug-in as described in detail elsewhere^42.
# The chemical compound screening was performed using the Prestwick Chemical Library®. The ENC cells were plated in 96 well plates (30,000/cm^2) and scratched manually 24 hours before addition of the compounds. The cells were treated with two concentrations of the compounds (10 μM and 1 μM). The plates were fixed 24 hours later for total plate imaging. The compounds were scores based on their ability to promote filling of the scratch in 24 hours. […] The hits were further validated to ensure reproducibility. The cells were treated with various concentrations of the selected hit compound (Pepstatin A) for dose response analysis. The optimal dose (10 μM-based on optimal response and viability) was used for follow-up experiments. For the pre-treatment experiments, cells were CD49D purified at day 11 and treated with Pepstatin A from day 12 through day 15 followed by transplantation into the colon wall of NSG mice.
# To inhibit BACE2, the ENC precursors were treated with 1 μM β-Secretase Inhibitor IV (CAS 797035-11-1—Calbiochem). […] The Knockdown was confirmed by qRT-PCR measurement of BACE2 mRNA levels in cells transfected with the BACE2 siRNAs vs. the control siRNA pool (ON-TARGETplus Non-targeting Pool, Dharmacon, D-001810-10-05). The transfected cells were scratched 24 hours after plating and fixed 48 hours later for migration quantification.
# [2] = test system: EDNRB−/− hESC-derived ENC precursors; assay: Colon migration after transplantation of pre-treated EDNRB−/− ENC precursors into NSG mice; type: in vivo, human cells in NSG mice; details: EDNRB-null precursors pre-treated for 72 hours before transplantation, 2 weeks
# Method: All mouse procedures were performed following NIH guidelines, and were approved by the local Institutional Animal Care and Use Committee (IACUC), the Institutional Biosafety Committee (IBC) as well as the Embryonic Stem Cell Research Committee (ESCRO). 3-6 week old male NSG (NOD.Cg-Prkdc^scid Il2rg^tm1Wjl/SzJ) mice or 2-3 weeks old EDNRB^s-l/s-l (SSL/LeJ) mice^39 (n=12, 6 male, 6 female) were used for these studies. […] Animals were randomly selected for the various treatment paradigms (NSG and EDNRB^s-l/s-l) but assuring for equal distribution of male/female ratio in each group (EDNRB^s-l/s-l). Animals were anesthetized with isoflurane (1%) throughout the procedure, a small abdominal incision was made, abdominal wall musculature lifted and the cecum is exposed and exteriorized. Warm saline was used to keep the cecum moist. 20 μl of cell suspension (2-4 million RFP+CD49D purified hESC-derived ENC precursors) in 70% matrigel (BD Biosciences, 354234) in PBS or 20 μl of 70% matrigel in PBS only (control grafted animals) were slowly injected into the cecum (targeting the muscle layer) using a 27-gauge needle. […]
# The harvested colon samples were fixed in 4% PFA at 4° C. overnight before imaging. Imaging was performed using Maestro fluorescence imaging system (Biotechniques). […]
compound,measurement,setting,value
"Cc1c[nH]c(-c2cnc(NCCNc3ccc(C#N)cn3)nc2-c2ccc(Cl)cc2Cl)n1 [CHIR99021, 6-(2-(4-(2,4-dichlorophenyl)-5-(4-methyl-1H-imidazol-2-yl)pyrimidin-2-ylamino)ethylamino)nicotinonitrile]",IC50 values against rodent GSK3β homologs,rodent GSK3β homologs,nanomolar
CC(C)CC(=O)N[C@H](C(=O)N[C@H](C(=O)N[C@@H](CC(C)C)[C@@H](O)CC(=O)N[C@@H](C)C(=O)N[C@@H](CC(C)C)[C@@H](O)CC(=O)O)C(C)C)C(C)C [Pepstatin A] (Isovaleryl-VV[Sta]A[Sta]-OH),rescue of the migration defect in scratch assay,"[1]; EDNRB−/− hESC derived NC precursors, range of concentrations, treatment started 24 hrs before scratching","dose-dependent, near complete rescue of the migration defect"
same,optimal dose (based on optimal response and viability),"[1]; dose response analysis, EDNRB−/− ENC",10 µM
same,rescue of in vivo migration behavior in adult colon,[2],significant rescue of the in vivo migration behavior
BACE inhibitor IV,rescue of the migration defect in scratch assay,"[1]; EDNRB−/− hESC-derived ENC, 1 μM",rescued the migration defect
